Measurements: publication PMC7956567, “Aqueous Solubility of Organic Compounds for Flow Battery Applications: Symmetry and Counter Ion Design to Avoid Low-Solubility Polymorphs” (Molecules, 2021)
Values after ≈ are worked out from the molar mass of the structure shown. Values joined by “and” are separate entries in the source; they are usually repeats but may differ in a detail not shown here. Equal values may be shown once. Where a name gives a salt, the structure may show the parent alone. One block for each molecule: values may come before it.

Legend:
[1] = design: method as in doi:10.1149/1945-7111/ab7550; settings: water; disodium salts; cited from earlier work
[2] = Solubility by NMR method with imidazole as internal standard; format: physicochemical
Text: (§1) Figure 3 illustrates the two methods used to determine solubility. The first method was gravimetry which required a higher amount of analyte to reduce any error arising from possible co-crystalized compounds. This method is easy to realize without the need for high-tech equipment, and its result is also a reference for the other method performed by NMR spectroscopy. The NMR method required only a small quantity of the analyte and was more accurate as no co-crystalized compounds were counted in its homogeneous solution phase.
The NMR spectra used to determine the solubility were recorded with a known amount of imidazole as the internal standard.
^1H NMR spectra were recorded in DMSO-d6 or CDCl3 solution at room temperature, on a Varian Unity Inova 500 spectrometer (Bruker Corp. Oxford, UK) (500 and 125 MHz for ^1H NMR and APT-NMR spectra, respectively), with the residual solvent signal as the lock and imidazole as the internal standard (only for solubility determination). Chemical shifts (δ) and coupling constants (J) are given in ppm and Hz, respectively.

[3] = Solubility by gravimetry; format: physicochemical; settings: aqueous buffer, thermodynamic from solid, 1 M sulfuric acid, first isolated polymorph
Text: as §1

[4] = 1 M acid, counter ion PO3 3− (phosphate), aqueous buffer, thermodynamic from solid, 1 M acid, counter ion PO3 3− [sic] (phosphate), read-out: Solubility in 1 M acid, PO3 3−
[5] = 1 M sulfuric acid, aqueous buffer, thermodynamic from solid, 1 M sulfuric acid, counter ion SO4 2−, final (more stable) polymorph, read-out: Solubility in 1 M acid, SO4 2−

Molecule: O=C1c2ccc(S(=O)(=O)O)cc2C(=O)c2cc(S(=O)(=O)O)ccc21 [2,7-AQDS disodium salt, 9,10-dioxo-9,10-dihydroanthracene-2,7-disulfonic acid]
Aqueous solubility [1]: 580 mM and 740 mM

solubility ([2]; 1 M acid, counter ion ClO4−, aqueous buffer, thermodynamic from solid, 1 M acid, counter ion ClO4−, read-out: Solubility in 1 M acid, ClO4−): 10 mM (≈ 3.08 mg/mL) | solubility ([2]; 1 M acid, counter ion Cl−, thermodynamic from solid, 1 M acid, counter ion Cl−, NMR method, validated by gravimetric analysis, read-out: Solubility in 1 M acid, Cl−): 30 mM (≈ 9.25 mg/mL) | solubility [2, 4]: 530 mM (≈ 163 mg/mL) | solubility [2, 5]: 80 mM (≈ 24.7 mg/mL) | solubility ([2]; 1 M sulfuric acid, one year later, new polymorph, method not given, read-out: Solubility in 1 M sulfuric acid one year later): < 100 mM | solubility [3]: 1700 mM (≈ 524 mg/mL)
Molecule: Oc1cc(CN2CCOCC2)c(O)cc1CN1CCOCC1 [DMHQ, 2,5-bis[(morpholin-4-yl)methyl]benzene-1,4-diol]

solubility [2, 4]: 550 mM (≈ 185 mg/mL) | solubility [2, 5]: 440 mM (≈ 148 mg/mL)
Molecule: Cc1c(O)c(C)c(CN2CCOCC2)c(O)c1CN1CCOCC1 [asym-DDHQ, 2,6-dimethyl-3,5-bis[(morpholin-4-yl)methyl]benzene-1,4-diol]

Molecule: O=C1c2cccc(S(=O)(=O)[O-])c2C(=O)c2cccc(S(=O)(=O)[O-])c21.[Na+].[Na+] [1,5-AQDSNa2, 9,10-dioxo-9,10-dihydroanthracene-1,5-disulfonic acid disodium salt]
Aqueous solubility [1]: 70 mM

Molecule: 2,3-dimethyl-5-[(morpholin-4-yl)methyl]benzene-1,4-diol [MMHQ]
Solubility in 1 M acid, ClO4− ([2]; 1 M acid, counter ion ClO4−): 20 mM | Solubility in 1 M acid, Cl− ([2]; 1 M acid, counter ion Cl−, NMR method, validated by gravimetric analysis): 0.07 ^1 M | Solubility in 1 M acid, PO3 3− ([2]; 1 M acid, counter ion PO3 3− [sic] (phosphate)): 0.48 M | Solubility in 1 M acid, SO4 2− ([2]; 1 M sulfuric acid, counter ion SO4 2−, final (more stable) polymorph): 480 mM

solubility [2, 4]: 400 mM (≈ 135 mg/mL) | solubility [2, 5]: 60 mM (≈ 20.2 mg/mL) | solubility ([2]; 1 M sulfuric acid, aqueous buffer, thermodynamic from solid, 1 M sulfuric acid, freshly obtained product, first polymorph, NMR method, read-out: Solubility of first polymorph in 1 M sulfuric acid): 240 mM (≈ 80.7 mg/mL)
Molecule: Cc1c(O)c(CN2CCOCC2)c(C)c(O)c1CN1CCOCC1 [sym-DDHQ, 2,5-dimethyl-3,6-bis[(morpholin-4-yl)methyl]benzene-1,4-diol]

Molecule: O=C1c2ccc(S(=O)(=O)[O-])cc2C(=O)c2ccc(S(=O)(=O)[O-])cc21.[Na+].[Na+] [2,6-AQDSNa2, 9,10-dioxo-9,10-dihydroanthracene-2,6-disulfonic acid disodium salt, reference compound]
solubility ([2]; water, disodium salt, NMR method with imidazole as internal standard, read-out: Aqueous solubility): 40 mM | Aqueous solubility [1]: below 0.1 M
